Laboratory results published in PubChem BioAssay (NCI).
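Compound exposure: 48 hours, 5 concentrations, 96-well plates. GI50 = concentration required for 50% inhibition of growth. The concentration for full growth arrest is given as TGI.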

Assays:
Assay in all cases: growth of human tumour cells (NCI), 48 h
[1] = tested on: CCRF-CEM leukemia
[2] = tested on: SF-295 CNS
[3] = tested on: SW-620 colon
[4] = tested on: MDA-MB-231 breast
[5] = tested on: SNB-75 CNS
[6] = tested on: KM12 colon
[7] = tested on: OVCAR-5 ovarian
[8] = tested on: RXF 393 renal
[9] = tested on: HL-60(TB) leukemia
[10] = tested on: HCC-2998 colon
[11] = tested on: EKVX NSCLC
[12] = tested on: BT-549 breast
[13] = tested on: OVCAR-8 ovarian
[14] = tested on: LOX IMVI melanoma
[15] = tested on: PC-3 prostate
[16] = tested on: NCI-H460 lung
[17] = tested on: ACHN renal
[18] = tested on: U251 CNS
[19] = tested on: MALME-3M melanoma
[20] = tested on: HS 578T breast
[21] = tested on: M14 melanoma
[22] = tested on: MDA-MB-468 breast
[23] = tested on: IGROV1 ovarian
[24] = tested on: DU-145 prostate
[25] = tested on: MDA-MB-435
[26] = tested on: SK-MEL-28 melanoma
[27] = tested on: HT29 colon
[28] = tested on: T-47D breast
[29] = tested on: K-562 leukemia
[30] = tested on: COLO 205 colon
[31] = tested on: SR leukemia
[32] = tested on: SK-OV-3 ovarian
[33] = tested on: HCT-15 colon
[34] = tested on: NCI-H226 lung
[35] = tested on: SF-539 CNS
[36] = tested on: NCI-H522 lung
[37] = tested on: HCT-116 colon
[38] = tested on: SNB-19 CNS
[39] = tested on: SK-MEL-5 melanoma
[40] = tested on: A498 renal
[41] = tested on: A549 NSCLC
[42] = tested on: SK-MEL-2 melanoma
[43] = tested on: SN12C renal
[44] = tested on: OVCAR-3 ovarian
[45] = tested on: NCI-H23 lung
[46] = tested on: UO-31 renal
[47] = tested on: MOLT-4 leukemia
[48] = tested on: HOP-92 NSCLC
[49] = tested on: HOP-62 NSCLC
[50] = tested on: CAKI-1 renal
[51] = tested on: 786-0 renal
[52] = tested on: TK-10 renal
[53] = tested on: UACC-257 melanoma
[54] = tested on: OVCAR-4 ovarian
[55] = tested on: MCF7 breast
[56] = tested on: RPMI-8226 leukemia
[57] = tested on: UACC-62 melanoma
[58] = tested on: SF-268 CNS

O=c1oc2ccc(-c3ccc(F)cc3F)cc2c(=O)n1-c1ccc(F)cc1
GI50 [1]: 3.18 µM
TGI [1]: 9.84 µM
GI50 [2]: 3.46 µM
TGI [2]: 12.8 µM
GI50 [3]: 3.23 µM
TGI [3]: > 100 µM
GI50 [4]: 1.76 µM
TGI [4]: 4.41 µM
GI50 [5]: 1.38 µM
TGI [5]: 5.53 µM
GI50 [6]: 3.07 µM
TGI [6]: 10.7 µM
GI50 [7]: 3.2 µM
TGI [7]: > 100 µM
GI50 [8]: 1.55 µM
TGI [8]: 5.63 µM
GI50 [9]: 2.01 µM
TGI [9]: 6.13 µM
GI50 [10]: 3.31 µM
TGI [10]: 13.9 µM
GI50 [11]: 2.8 µM
TGI [11]: > 100 µM
GI50 [12]: 1.92 µM
TGI [12]: 5.89 µM
GI50 [13]: 3.52 µM
TGI [13]: > 100 µM
GI50 [14]: 3.21 µM
TGI [14]: 11.2 µM
GI50 [15]: 2.8 µM
TGI [15]: 11.7 µM
GI50 [16]: 2.3 µM
TGI [16]: 11.9 µM
GI50 [17]: 3.88 µM
TGI [17]: > 100 µM
GI50 [18]: 2.82 µM
TGI [18]: 17.3 µM
GI50 [19]: 1.62 µM
TGI [19]: 5.34 µM
GI50 [20]: 2.27 µM
TGI [20]: 7.51 µM
GI50 [21]: 3.49 µM
TGI [21]: > 100 µM
GI50 [22]: 1.87 µM
TGI [22]: 5.67 µM
GI50 [23]: 3.02 µM
TGI [23]: > 100 µM
GI50 [24]: 3.3 µM
TGI [24]: > 100 µM
GI50 [25]: 1.73 µM
TGI [25]: 7.09 µM
GI50 [26]: 3.23 µM
TGI [26]: > 100 µM
GI50 [27]: 10.3 µM
TGI [27]: 75.8 µM
GI50 [28]: 0.502 µM
TGI [28]: 4.32 µM
GI50 [29]: 1.58 µM
TGI [29]: > 100 µM
GI50 [30]: 16.3 µM
TGI [30]: 34.8 µM
GI50 [31]: 2.45 µM
TGI [31]: > 100 µM
GI50 [32]: 2.15 µM
TGI [32]: 6.37 µM
GI50 [33]: 2.91 µM
TGI [33]: > 100 µM
GI50 [34]: 1.45 µM
TGI [34]: 6.5 µM
GI50 [35]: 2.88 µM
TGI [35]: 12.1 µM
GI50 [36]: 1.23 µM
TGI [36]: 6.15 µM
GI50 [37]: 3.12 µM
TGI [37]: 18.8 µM
GI50 [38]: 3.58 µM
TGI [38]: > 100 µM
GI50 [39]: 0.799 µM
TGI [39]: 2.3 µM
GI50 [40]: 1.91 µM
TGI [40]: 6.17 µM
GI50 [41]: 3.25 µM
TGI [41]: > 100 µM
GI50 [42]: 1.79 µM
TGI [42]: 4.6 µM
GI50 [43]: 2.12 µM
TGI [43]: 8.04 µM
GI50 [44]: 2.49 µM
TGI [44]: 14 µM
GI50 [45]: 2.08 µM
TGI [45]: 6.78 µM
GI50 [46]: 2.3 µM
TGI [46]: 9.44 µM
GI50 [47]: 2.08 µM
TGI [47]: 8.27 µM
GI50 [48]: 0.95 µM
TGI [48]: 4.48 µM
GI50 [49]: 2.39 µM
TGI [49]: 6.93 µM
GI50 [50]: 1.48 µM
TGI [50]: 5.1 µM
GI50 [51]: 5.51 µM
TGI [51]: 53.7 µM
GI50 [52]: 2.78 µM
TGI [52]: > 100 µM
GI50 [53]: 1.64 µM
TGI [53]: 6.78 µM
GI50 [54]: 2.08 µM
TGI [54]: 54.1 µM
GI50 [55]: 2.51 µM
TGI [55]: > 100 µM
GI50 [56]: 1.33 µM
TGI [56]: 7.13 µM
GI50 [57]: 1.37 µM
TGI [57]: 4.65 µM

COc1cccc2nc(Nc3ccc(F)c(NC(=O)c4ccc(CN5CCN(C)CC5)c(C(F)(F)F)c4)c3)ccc12
GI50 [1]: 9.71 µM
TGI [1]: 25.6 µM
GI50 [2]: 17.1 µM
TGI [2]: 32.2 µM
GI50 [3]: 16.9 µM
TGI [3]: 30.9 µM
GI50 [4]: 12.1 µM
TGI [4]: 24.9 µM
GI50 [5]: 9.08 µM
TGI [5]: 21.4 µM
GI50 [6]: 15.4 µM
TGI [6]: 29.6 µM
GI50 [7]: 16.1 µM
TGI [7]: 30.4 µM
GI50 [8]: 3.71 µM
TGI [8]: 17.2 µM
GI50 [9]: 6.52 µM
TGI [9]: 25.4 µM
GI50 [10]: 18.8 µM
TGI [10]: 33.2 µM
GI50 [11]: 14.7 µM
TGI [11]: 29.1 µM
GI50 [12]: 10.5 µM
TGI [12]: 22.6 µM
GI50 [13]: 15.8 µM
TGI [13]: 29.8 µM
GI50 [14]: 13.8 µM
TGI [14]: 27.3 µM
GI50 [15]: 12 µM
TGI [15]: 28.7 µM
GI50 [16]: 15.9 µM
TGI [16]: 33.5 µM
GI50 [17]: 16.5 µM
TGI [17]: 34.9 µM
GI50 [18]: 13.4 µM
TGI [18]: 26.1 µM
GI50 [19]: 11.7 µM
TGI [19]: 24.1 µM
GI50 [20]: 14.1 µM
TGI [20]: 39.9 µM
GI50 [21]: 13.1 µM
TGI [21]: 27.5 µM
GI50 [22]: 4.79 µM
TGI [22]: 18.1 µM
GI50 [23]: 14.5 µM
TGI [23]: 29 µM
GI50 [24]: 12.9 µM
TGI [24]: 25.6 µM
GI50 [25]: 15.1 µM
TGI [25]: 28.3 µM
GI50 [26]: 15.3 µM
TGI [26]: 30.3 µM
GI50 [27]: 3.61 µM
TGI [27]: 13.9 µM
GI50 [28]: 14.8 µM
TGI [28]: 31.4 µM
GI50 [29]: 3.59 µM
TGI [29]: 20.9 µM
GI50 [30]: 17.2 µM
TGI [30]: 31.9 µM
GI50 [31]: 9.84 µM
TGI [31]: 28 µM
GI50 [32]: 15.7 µM
TGI [32]: 29.8 µM
GI50 [33]: 13.4 µM
TGI [33]: 28.4 µM
GI50 [34]: 11.1 µM
TGI [34]: 24.7 µM
GI50 [35]: 12.4 µM
TGI [35]: 25.5 µM
GI50 [36]: 16 µM
TGI [36]: 30.2 µM
GI50 [37]: 8.75 µM
TGI [37]: 22.6 µM
GI50 [38]: 17.2 µM
TGI [38]: 32.8 µM
GI50 [39]: 15.5 µM
TGI [39]: 28.9 µM
GI50 [40]: 17 µM
TGI [40]: 32.2 µM
GI50 [41]: 12.2 µM
TGI [41]: 24.6 µM
GI50 [42]: 16.1 µM
TGI [42]: 29.9 µM
GI50 [43]: 13.4 µM
TGI [43]: 27.4 µM
GI50 [44]: 14.4 µM
TGI [44]: 28 µM
GI50 [45]: 15.5 µM
TGI [45]: 29.6 µM
GI50 [46]: 12.6 µM
TGI [46]: 25.5 µM
GI50 [47]: 4.1 µM
TGI [47]: 18.4 µM
GI50 [48]: 6.64 µM
TGI [48]: 21.6 µM
GI50 [49]: 14.5 µM
TGI [49]: 28 µM
GI50 [50]: 11.5 µM
TGI [50]: 24.2 µM
GI50 [58]: 11.1 µM
TGI [58]: 27.1 µM
GI50 [51]: 12.5 µM
TGI [51]: 26.4 µM
GI50 [52]: 16.4 µM
TGI [52]: 30.2 µM
GI50 [53]: 16.3 µM
TGI [53]: 30.1 µM
GI50 [54]: 13.9 µM
TGI [54]: 28.9 µM
GI50 [55]: 12.3 µM
TGI [55]: 27.5 µM
GI50 [56]: 9.3 µM
TGI [56]: 27.1 µM
GI50 [57]: 16.2 µM
TGI [57]: 30.9 µM
